Assay results reported in patent US20140051729A1, “COMPOSITIONS AND METHODS FOR TREATING DEGENERATIVE MUSCLE CONDITIONS” (University of Washington, priority 2011, published 2014).

Tested on: mdx mice
Experiment: EDL muscle myography in mdx mice
Format: in vivo, mouse
Details: THI IP twice-daily two weeks
Protocol: The effect of THI administration on muscle function and recovery in mdx mice was analyzed. The mice were injected intraperitoneally with THI in PBS or vehicle alone (PBS) twice-daily for two weeks. Total amount of THI delivered per day was 75 ug. Extensor digitorum longus (EDL) muscles were excised from the mice and equilibrated in ringer's solution with 95% O2/5% CO2 for a minimum of 15 minutes prior to stimulation. Myography was conducted using a DMT 820S myograph and data was recorded using PowerLab 4/30 acquisition system with LabChart Pro software v7.3.1 (both from ADI instruments, Colorado Springs, Colo.). Stimulations were conducted with a Grass Instrument S88X system (Grass Technologies, West Warwick, R.I.). Muscles were stimulated to establish optimal fiber length (Lf) and voltage at which maximum tetanic force was measured at 120 Hz within a 450 ms duration.
Specific force was calculated as previously described in Gregorevic P. et al. (Gregorevic P. et al., Muscle Nerve. 2004 September; 30(3):295-304, PMID#15318340) by normalizing to whole muscle cross-sectional area (CSA). CSA is the quotient of […] muscle mass over the optimal muscle length (Lo) which is defined as the product of muscle fiber length (Lf) with the fiber length ratio (0.44 for EDL) and mammalian muscle density (1.06).
Muscle recovery was measured after muscle was fatigued with stimulation over 6 minutes. […] Recovery was determined by examining muscle force at 5, 10, and 15 minutes after stimulation. […] Therefore, the administration of THI improved muscle recovery and function in dystrophic mice.
The effect of THI-oxime administration on muscle function and recovery in mdx mice was analyzed. The mice were injected intraperitoneally with THI-oxime (n=3) or PBS vehicle alone (n=4) twice-daily for two weeks and then analyzed between 1-4 days following the final day of injection. Total amount of THI-oxime delivered per day was 75 ug. Prior to euthanasia, the animals were anesthetized with 0.5 mg/g weight avertin diluted in PBS. EDL muscles were excised from the mice and equilibrated in ringer's solution (120 mM NaCl, 4.7 mM KCl, 3.15 mM MgCl2, 1.3 mM NaH2PO4, 25 mM NaHCO3, 11 mM Glucose, 1.25 mM CaCl2, pH 7.2) with 95% O2/5% CO2 for a minimum of 15 minutes prior to stimulation. All functional experiments were carried out with buffer solutions at 25° C. under constant oxygenation. Myography was conducted using a DMT 820S myograph and data was recorded using PowerLab 4/30 acquisition system with LabChart Pro software v7.3.1 (both from ADI instruments, Colorado Springs, Colo.). […] Muscles were stimulated to establish optimal fiber length (Lf) and voltage at which maximum tetanic force was measured at 120 Hz within a 450 ms duration. […]

CC(=O)c1ncc([C@@H](O)[C@H](O)[C@H](O)CO)[nH]1 [THI, 1-[5-[(1R,2S,3R)-1,2,3,4-tetrahydroxybutyl]-1H-imidazol-2-yl]-ethanone]
maximum specific force of EDL muscle (75 ug per day, vehicle 95.45): 134.29 KN/m^2
muscle fatigue with stimulation over 6 minutes (vs vehicle): fatigued at similar rates
muscle recovery (force at 5, 10 and 15 minutes after stimulation) (vs vehicle): improved recovery
